Reference: patent US9663496B2, “AMPK-activating heterocyclic compounds and methods for using the same” (Rigel Pharmaceuticals, Inc., priority 2010, dated 2017)

Target: AMPK
Experiment: AMPK activation, enzyme-linked immunosorbent assay
Type: biochemical
Settings: EC50 for AMPK activation, ELISA
Summary of the method: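 Compounds were tested for their capacity to activate the kinase using standard, commercially available kit reagents and procedures.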

`COc1ccc(C(=O)C2CCN(C(=O)c3ccc(C(=O)Nc4ccc(Oc5ccc(C(=O)N(C)C)cc5)nc4)cn3)CC2)cc1` [Compound 480, N-(6-(4-(dimethylcarbamoyl)phenoxy)pyridin-3-yl)-6-(4-(4-methoxybenzoyl)piperidine-1-carbonyl)nicotinamide] and `COc1ccc(C(=O)C2CCN(C(=O)c3ccc(C(=O)Nc4ccc(Oc5ccc(S(C)(=O)=O)cc5)nc4)cn3)CC2)cc1` [Compound 465, 6-(4-(4-methoxybenzoyl)piperidine-1-carbonyl)-N-(6-(4-(methylsulfonyl)phenoxy)pyridin-3-yl)nicotinamide] cannot be ordered by EC50: < 500 nM for the first, < 500 nM for the second.

Compared with `COc1ccc(OC2CCN(C(=O)c3ccc(C(=O)N[C@H]4CC[C@@H](Oc5ccc(C(F)(F)F)cc5)CC4)nc3)CC2)cc1` [Compound 191, 5-(4-(4-methoxyphenoxy)piperidine-1-carbonyl)-N-((cis)-4-(4-(trifluoromethyl)phenoxy)cyclohexyl) picolinamide], `N#Cc1ccc(O[C@H]2CC[C@H](NC(=O)c3ccc(C(=O)N4CCC(Oc5ccc(F)cc5)CC4)cn3)CC2)cc1` [Compound 169, N-((trans)-4-(4-cyanophenoxy)cyclohexyl)-5-(4-(4-fluorophenoxy)piperidine-1-carbonyl)picolinamide] is higher in EC50: < 500 nM for the first, 500 to 1000 nM for the second. The first is the more potent here.

`CC(=O)c1ccc(Oc2ccc(NC(=O)c3ccc(C(=O)N4CCN(c5ccc(S(=O)(=O)C(C)C)cc5)CC4)nc3)cn2)cc1` [Compound 489, N-(6-(4-acetylphenoxy)pyridin-3-yl)-6-(4-(4-(isopropylsulfonyl)phenyl)piperazine-1-carbonyl)nicotinamide] and `CC(=O)c1ccc(Oc2ccc(NC(=O)c3ccc(C(=O)N4CCN(Cc5ccc(F)cc5)CC4)nc3)cn2)cc1` [Compound 477, N-(6-(4-acetylphenoxy)pyridin-3-yl)-6-(4-(4-fluorobenzyl)piperazine-1-carbonyl)nicotinamide] cannot be ordered by EC50: < 500 nM for the first, < 500 nM for the second.

First: CS(=O)(=O)c1ccc(OC2CCN(C(=O)c3ccc(C(=O)Nc4ccc(Oc5ccc(F)cc5)nc4)cn3)CC2)cc1 [Compound 235, N-(6-(4-fluorophenoxy)pyridin-3-yl)-6-(4-(4-(methylsulfonyl)phenoxy)piperidine-1-carbonyl)nicotinamide]
Second: CC(=O)Nc1cccc(OC2CCN(C(=O)c3ccc(C(=O)Nc4ccc(Oc5ccc(F)cc5)nc4)cn3)CC2)c1 [Compound 414, 6-(4-(3-acetamidophenoxy)piperidine-1-carbonyl)-N-(6-(4-fluorophenoxy)pyridin-3-yl)nicotinamide]
The EC50 of the first is lower: < 500 nM for the first, 1000 to 5000 nM for the second.

`CS(=O)(=O)c1ccc(OC2CCN(C(=O)c3ccc(C(=O)NC4CCN(Cc5ccc(C#N)cc5)CC4)nn3)CC2)cc1` [Compound 399, N-(1-(4-cyanobenzyl)piperidin-4-yl)-6-(4-(4-(methylsulfonyl)phenoxy)piperidine-1-carbonyl)pyridazine-3-carboxamide] and `CS(=O)(=O)c1ccc(OC2CCN(C(=O)c3ccc(C(=O)NC4CCN(Cc5ccc(C#N)cc5)CC4)cn3)CC2)cc1` [Compound 397, N-(1-(4-cyanobenzyl)piperidin-4-yl)-6-(4-(4-(methylsulfonyl)phenoxy)piperidine-1-carbonyl)nicotinamide] cannot be ordered by EC50: < 500 nM for the first, < 500 nM for the second.

First: O=C(Nc1cccc(-c2ccccc2)c1)c1ccc(C(=O)NC2CCN(Cc3ccccc3)CC2)nc1 [Compound 106, N2-(1-benzylpiperidin-4-yl)-N5-(biphenyl-3-yl)pyridine-2,5-dicarboxamide]
Second: N#Cc1ccc(CN2CCC(NC(=O)c3ccc(N4CCN(Cc5ccccc5)CC4)cn3)CC2)cc1 [Compound 110, 5-(4-benzylpiperazin-1-yl)-N-(1-(4-cyanobenzyl)piperidin-4-yl)picolinamide]
The EC50 of the first is higher: 5000 to 10000 nM for the first, 1000 to 5000 nM for the second. The second is the more potent here.

`COc1ccc(CN2CCC(NC(=O)c3ccc(C(=O)N4CCN(Cc5ccc(F)cc5)CC4)nc3)CC2)cc1` [Compound 327, 6-(4-(4-fluorobenzyl)piperazine-1-carbonyl)-N-(1-(4-methoxybenzyl)piperidin-4-yl)nicotinamide] and `COc1ccc(CN2CCC(NC(=O)c3ccc(C(=O)N4CCN(Cc5ccc(C#N)cc5)CC4)cn3)CC2)cc1` [Compound 285, 5-(4-(4-cyanobenzyl)piperazine-1-carbonyl)-N-(1-(4-methoxybenzyl)piperidin-4-yl)picolinamide] cannot be ordered by EC50: < 500 nM for the first, < 500 nM for the second.

`N#Cc1ccc(O[C@H]2CC[C@@H](NC(=O)c3ccc(C(=O)N4CCC(C(=O)c5ccc(N6CCCC6)cc5)CC4)nc3)CC2)cc1` [Compound 442, N-((cis)-4-(4-cyanophenoxy)cyclohexyl)-6-(4-(4-(pyrrolidin-1-yl)benzoyl)piperidine-1-carbonyl)nicotinamide] and `COc1ccc(C(=O)C2CCN(C(=O)c3ccc(C(=O)N[C@H]4CC[C@@H](Oc5ccc(C#N)c(F)c5)CC4)nc3)CC2)cc1` [Compound 198, N-((cis)-4-(4-cyano-3-fluorophenoxy)cyclohexyl)-5-(4-(4-methoxybenzoyl)piperidine-1-carbonyl)picolinamide] cannot be ordered by EC50: < 500 nM for the first, < 500 nM for the second.

`O=C(NC1CCN(Cc2ccc(F)cc2)CC1)c1ccc(C(=O)N2CCC(Oc3ccc(F)cc3)CC2)cn1` [Compound 180, N-(1-(4-fluorobenzyl)piperidin-4-yl)-5-(4-(4-fluorophenoxy)piperidine-1-carbonyl)picolinamide] and `COc1ccc(CN2CCC(NC(=O)c3ccc(C(=O)N4CCC(Oc5ccc(S(F)(F)(F)(F)F)cc5)CC4)nc3)CC2)cc1` [Compound 495, N-(1-(4-methoxybenzyl)piperidin-4-yl)-6-(4-(4-(pentafluorosulfanyl)phenoxy)piperidine-1-carbonyl)nicotinamide] cannot be ordered by EC50: < 500 nM for the first, < 500 nM for the second.

`N#Cc1ccc(Cn2ccc(NC(=O)c3ccc(C(=O)N4CCN(Cc5ccc(F)cc5)CC4)cn3)n2)cc1` [Compound 9, N-(1-(4-cyanobenzyl)-1H-pyrazol-3-yl)-5-(4-(4-fluorobenzyl)piperazine-1-carbonyl)picolinamide] and `N#Cc1ccc(CN2CC[C@@H](NC(=O)c3ccc(C(=O)N4CCN(Cc5ccc(F)cc5)CC4)cn3)[C@@H](F)C2)cc1` [Compound 100] cannot be ordered by EC50: < 500 nM for the first, < 500 nM for the second.

Compared with `CS(=O)(=O)Nc1ccc(OC2CCN(C(=O)c3ccc(C(=O)NC4CCN(Cc5ccc(C#N)cc5)CC4)cn3)CC2)cc1` [Compound 367, N-(1-(4-cyanobenzyl)piperidin-4-yl)-6-(4-(4-(methylsulfonamido)phenoxy)piperidine-1-carbonyl)nicotinamide], `CC(=O)Nc1ccc(OC2CCN(C(=O)c3ccc(C(=O)NC4CCN(Cc5ccc(C#N)cc5)CC4)cn3)CC2)cc1` [Compound 366, 6-(4-(4-acetamidophenoxy)piperidine-1-carbonyl)-N-(1-(4-cyanobenzyl)piperidin-4-yl)nicotinamide] is lower in EC50: > 10000 nM for the first, < 500 nM for the second.

First: CS(=O)(=O)c1ccc(OC2CCN(C(=O)c3ccc(C(=O)NC4CCN(Cc5cccc(OC(F)(F)F)c5)CC4)cn3)CC2)cc1 [Compound 239, 6-(4-(4-(methylsulfonyl)phenoxy)piperidine-1-carbonyl)-N-(1-(3-(trifluoromethoxy)benzyl)piperidin-4-yl)nicotinamide]
Second: COc1ccc(C(=O)C2CCN(C(=O)c3ccc(C(=O)NC4CCN(Cc5ccc(S(C)(=O)=O)cc5)CC4)cn3)CC2)cc1 [Compound 215, 6-(4-(4-methoxybenzoyl)piperidine-1-carbonyl)-N-(1-(4-(methylsulfonyl)benzyl)piperidin-4-yl)nicotinamide]
The EC50 of the first is lower: 1000 to 5000 nM for the first, > 10000 nM for the second. The first is the more potent here.

Compared with `O=C(c1ccc(N2CCC(Oc3ccc(C(F)(F)F)cc3)CC2)nc1)N1CCN(Cc2ccc(F)cc2)CC1` [Compound 187, (4-(4-fluorobenzyl)piperazin-1-yl)(6-(4-(4-(trifluoromethyl)phenoxy)piperidin-1-yl)pyridin-3-yl)methanone], `N#Cc1ccc(OC2CN(C(=O)c3ccc(C(=O)Nc4ccc(Oc5ccc(F)cc5)nc4)nc3)C2)cc1` [Compound 210, 5-(3-(4-cyanophenoxy)azetidine-1-carbonyl)-N-(6-(4-fluorophenoxy)pyridin-3-yl)picolinamide] is higher in EC50: 1000 to 5000 nM for the first, > 10000 nM for the second. The first is the more potent here.
